ChEMBL document CHEMBL4342492, “Optimization of Small Molecules That Sensitize HIV-1 Infected Cells to Antibody-Dependent Cellular Cytotoxicity” (ACS Med Chem Lett, 2020)
The source made the active and inactive calls. The calls are words filed in the database; no cut-off is given here.

Columns and labels:
[1] = biological target: Envelope glycoprotein gp160 (Human immunodeficiency virus 1) (UniProt Q6QLK5); assay: Binding affinity to HIV1JRFL envelope glycoprotein expressed in human HOS cells assessed as fold change in binding to CoRBS 17b incubated for 1 hrs by cell based ELISA relative to BNM-III-170; details: JRFL
Envelope glycoprotein gp160 (Human immunodeficiency virus 1), sequence (Q6QLK5 1-814): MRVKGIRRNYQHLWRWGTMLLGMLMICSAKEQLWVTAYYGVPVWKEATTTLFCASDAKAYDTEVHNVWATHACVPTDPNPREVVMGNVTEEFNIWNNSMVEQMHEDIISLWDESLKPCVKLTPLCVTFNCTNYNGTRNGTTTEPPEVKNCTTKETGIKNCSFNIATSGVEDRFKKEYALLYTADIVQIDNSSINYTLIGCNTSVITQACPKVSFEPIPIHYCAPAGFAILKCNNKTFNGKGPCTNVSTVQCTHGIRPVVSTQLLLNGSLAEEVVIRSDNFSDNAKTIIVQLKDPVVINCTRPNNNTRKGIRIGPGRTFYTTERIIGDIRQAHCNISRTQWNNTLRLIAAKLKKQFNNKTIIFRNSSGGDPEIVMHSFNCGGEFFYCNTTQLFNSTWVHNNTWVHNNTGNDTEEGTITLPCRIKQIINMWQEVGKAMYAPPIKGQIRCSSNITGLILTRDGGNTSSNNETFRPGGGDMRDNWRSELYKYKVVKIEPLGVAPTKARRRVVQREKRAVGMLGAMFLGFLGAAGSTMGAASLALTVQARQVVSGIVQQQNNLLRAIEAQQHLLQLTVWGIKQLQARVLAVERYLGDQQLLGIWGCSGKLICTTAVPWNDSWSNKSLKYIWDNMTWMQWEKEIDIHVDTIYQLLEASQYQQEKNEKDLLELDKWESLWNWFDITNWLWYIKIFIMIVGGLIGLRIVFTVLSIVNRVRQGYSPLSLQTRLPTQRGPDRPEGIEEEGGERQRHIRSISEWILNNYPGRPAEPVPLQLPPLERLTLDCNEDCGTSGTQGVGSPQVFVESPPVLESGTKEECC

[2] = biological target: Envelope glycoprotein gp160 (Human immunodeficiency virus 1, UniProt Q6QLK5); assay: Binding affinity to HIV1 YU-2 gp120 by isothermal titration calorimetric analysis
Envelope glycoprotein gp160, sequence (Q6QLK5 whole entry): as the sequence (Q6QLK5 1-814) above

[3] = system: Human immunodeficiency virus 1; assay: Induction of sensitization to HIV-1CH58TF infected in CD4-positive T cells assessed as […] cellular cytotoxicity at 50 uM incubated for 4 to 6 hrs by AquaVivid/eFluor670 staining based by flow cytometric analysis; assay type: functional, organism-based

O=C(Nc1ccc(Cl)c(F)c1)C1CCCOC1 (racemic)
fold change (FC) [1]: 0.48

CS(=O)(=O)N1CCC[C@H](C(=O)Nc2ccc(Cl)c(F)c2)C1
Kd [2]: 2.8 µM
Activity [3]: Active
fold change (FC) [1]: 0.58

CCCNC(=O)N1C[C@H](N)C[C@H](C(=O)Nc2ccc(Cl)c(F)c2)C1
fold change (FC) [1]: 0.11

CS(=O)(=O)N1CCCC(NC(=O)c2ccc(Cl)c(F)c2)C1 (racemic)
fold change (FC) [1]: 0.08

NCCNC(=O)N1C[C@H](N)C[C@H](C(=O)Nc2ccc(Cl)c(F)c2)C1
fold change (FC) [1]: 0.06

NCCNC(=O)N1CCC[C@H](C(=O)Nc2ccc(Cl)c(F)c2)C1
Activity [3]: Active
fold change (FC) [1]: 0.58

O=C(Nc1ccc(Cl)c(F)c1)[C@@H]1CCCOC1
fold change (FC) [1]: 0.28

CCS(=O)(=O)N1CCC[C@H](C(=O)Nc2ccc(Cl)c(F)c2)C1
fold change (FC) [1]: 0.35

NCCCNC(=O)N1C[C@H](N)C[C@H](C(=O)Nc2ccc(Cl)c(F)c2)C1
fold change (FC) [1]: 0.06

NCCCNC(=O)N1CCC[C@H](C(=O)Nc2ccc(Cl)c(F)c2)C1
fold change (FC) [1]: 0.25

CS(=O)(=O)N1CCNC(C(=O)Nc2ccc(Cl)c(F)c2)C1 (racemic)
fold change (FC) [1]: 0.1

O=C(Nc1ccc(Cl)c(F)c1)[C@H]1CCCOC1
fold change (FC) [1]: 0.58

CS(=O)(=O)N1CC(C(=O)Nc2ccc(Cl)c(F)c2)Cc2ccccc21 (racemic)
fold change (FC) [1]: 0.24

CS(=O)(=O)N1CCC(C(=O)Nc2ccc(Cl)c(F)c2)CC1
fold change (FC) [1]: 0.21

CCCNC(=O)N1CCC[C@H](C(=O)Nc2ccc(Cl)c(F)c2)C1
Activity [3]: Active
fold change (FC) [1]: 0.55

CC(C)COC(=O)N1CCC[C@H](C(=O)Nc2ccc(Cl)c(F)c2)C1
fold change (FC) [1]: 0.62

CS(=O)(=O)N1CCOC(C(=O)Nc2ccc(Cl)c(F)c2)C1 (racemic)
fold change (FC) [1]: 0.28

O=C(Nc1ccc(Cl)c(F)c1)[C@H]1CCCN(S(=O)(=O)c2ccccc2)C1
fold change (FC) [1]: 0.45

CCS(=O)(=O)N1CCCC(C(=O)Nc2ccc(Cl)c(F)c2)C1 (racemic)
fold change (FC) [1]: 0.42

NCCOC(=O)N1C[C@H](N)C[C@H](C(=O)Nc2ccc(Cl)c(F)c2)C1
fold change (FC) [1]: 0.07

CCCNC(=N)N1CCC[C@H](C(=O)Nc2ccc(Cl)c(F)c2)C1
fold change (FC) [1]: 0.85

CS(=O)(=O)N1CCC[C@H](C(=O)Oc2ccc(Cl)c(F)c2)C1
fold change (FC) [1]: 0.07

CS(=O)(=O)N1CCC[C@H](C(=O)Nc2ccc(Br)cc2)C1
fold change (FC) [1]: 0.36

CS(=O)(=O)N1CCC(C(=O)Nc2ccc(Cl)c(F)c2)C1 (racemic)
fold change (FC) [1]: 0.36

CCOC(=O)N1CCC[C@H](C(=O)Nc2ccc(Cl)c(F)c2)C1
Kd [2]: 0.77 µM
Activity [3]: Active
fold change (FC) [1]: 0.53

CCCOC(=O)N1CCC[C@H](C(=O)Nc2ccc(Cl)c(F)c2)C1
fold change (FC) [1]: 0.51

COC(=O)N1CCC[C@H](C(=O)Nc2ccc(Cl)c(F)c2)C1
Kd [2]: 1.8 µM
Activity [3]: Active
fold change (FC) [1]: 0.5

CS(=O)(=O)N1CCC[C@H](C(=O)Nc2ccc(Cl)cc2)C1
Kd [2]: > 10 µM
fold change (FC) [1]: 0.31

CS(=O)(=O)N1CCC[C@@H](C(=O)Nc2ccc(Cl)cc2)C1
fold change (FC) [1]: 0.08
